Our source for the IC50 values is patent publication US11534441B2, “MAP4K1 inhibitors” (Blueprint Medicines Corporation, priority 2020, dated 2022).

pIC50: −log10 of the molar value. Bounds are passed on as bounds.

This assay has as its target MAP4K1 (HPK1) (Homo sapiens (Human), UniProt Q92918). The assay can be described thus: MAP4K1 (HPK1) biochemical enzymatic activity, electrophoretic mobility shift (EZReader 2), ATP at APPKM (26 μM). From the text: MAP4K1 (HPK1) and relevant off-target enzymatic activity was monitored using the Perkin Elmer electrophoretic mobility shift technology platform—the EZReader 2. […] Within the linear, steady-state phase of the kinase enzymatic reaction, the mixed pool of phosphorylated (product) and non-phosphorylated (substrate) peptides was passed through the microfluidic system of the PerkinElmer EZ Reader 2, under an applied electric potential difference. The presence of the phosphate group on the product peptide provided a difference in mass and charge between that of the substrate peptide, resulting in a separation of the substrate and product pools in the sample (Perrin et al. 2010). As the product and substrate peptide mixture passes the lasers within the instrument, these pools are detected (λex=488 nm, λent=568 nm) and resolved as separate peaks. The ratio between these peaks reflects the activity of the compound at that concentration, in that well, under those conditions.
Inhibitors were dissolved in 100% DMSO at a stock concentration of 10 mM. A 100×, 10-point, 4-fold serial dilution of each inhibitor was created in 100% DMSO either manually or on a Hamilton STAR liquid handler, starting at a relevant concentration, usually 1 mM. A volume of 0.130 μL of each concentration was transferred to the relevant wells of a 384-well plate (Greiner 781 201) in duplicate using a TTPLabtech Mosquito nano-litre dispenser. Using a Multidrop Combi, the remaining constituents of the kinase reaction were added to the 130 nL of dosed compound as follows (see table below for final reaction details):
Enzyme activity assays at the ^APPKM for ATP or 1 mM ATP: In each well of a 384-well plate, 0.1-15 nM of untreated enzyme was incubated in a total of 13 μL of buffer (100 mM HEPES pH 7.5, 0.015% Brij 35, 10 mM MgCl2, 1 mM DTT) with 1.5 μM fluorescent peptid and 20-1000 μM ATP, at 25° C., for 60-180 minutes in the presence or absence of a dosed concentration series of compound (1% DMSO final concentration). The kinase reactions were stopped by the addition of 70 μl of Stop buffer (100 mM HEPES pH 7.5, 0.015% Brij 35, 35 mM EDTA and 0.2% of Coating Reagent 3 (Caliper Lifesciences)). The plates were read on a Caliper EZReader 2 as described above.

Sequence of MAP4K1 (HPK1) (Q92918 whole entry): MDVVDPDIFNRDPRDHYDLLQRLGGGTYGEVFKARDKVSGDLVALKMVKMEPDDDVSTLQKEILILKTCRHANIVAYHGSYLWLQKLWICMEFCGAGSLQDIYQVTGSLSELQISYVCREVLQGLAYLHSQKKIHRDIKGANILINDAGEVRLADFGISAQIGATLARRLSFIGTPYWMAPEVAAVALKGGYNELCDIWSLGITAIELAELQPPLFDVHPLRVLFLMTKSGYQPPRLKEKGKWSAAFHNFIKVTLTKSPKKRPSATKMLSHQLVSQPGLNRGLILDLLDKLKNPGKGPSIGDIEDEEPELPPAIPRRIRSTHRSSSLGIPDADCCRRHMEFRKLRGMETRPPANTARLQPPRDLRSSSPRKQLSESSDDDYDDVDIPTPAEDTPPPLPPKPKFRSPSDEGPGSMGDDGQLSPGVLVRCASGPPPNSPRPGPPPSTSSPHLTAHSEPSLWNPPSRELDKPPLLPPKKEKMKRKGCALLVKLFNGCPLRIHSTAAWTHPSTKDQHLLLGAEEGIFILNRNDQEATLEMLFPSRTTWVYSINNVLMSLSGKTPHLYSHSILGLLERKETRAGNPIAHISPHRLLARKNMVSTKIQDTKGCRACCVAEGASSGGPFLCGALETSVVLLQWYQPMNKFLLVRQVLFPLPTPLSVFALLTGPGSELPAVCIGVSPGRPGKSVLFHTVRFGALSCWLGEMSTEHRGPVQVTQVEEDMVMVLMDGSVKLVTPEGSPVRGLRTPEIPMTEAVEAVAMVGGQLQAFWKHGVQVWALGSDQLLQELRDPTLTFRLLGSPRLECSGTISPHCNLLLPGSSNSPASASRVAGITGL

Regarding `CC[C@@H](C)c1nc(Nc2cc3c(C(C)(C)N)cnc(OC)c3cn2)ccc1C#N` [Compound 18], the pIC50 is, setting by setting: (class designation) 9.00 to 9.51; (numeric value) 9.40.
Take `COc1ncc(C(C)(C)N)c2cc(Nc3ccnc(N4CCC[C@@H]4C)n3)ncc12` [Compound 27]: the pIC50 was more than 9.52 (class designation) and 9.52 (numeric value).
In the same order, the values of `COc1ncc(C(C)(C)N)c2cc(Nc3cnc(C#N)c(C(C)(C)F)n3)ncc12` [Compound 29] are 8.00 to 8.96 and 8.40.
In the same order, the values of `COc1ncc(C(C)(C)N)c2cc(Nc3cnc4c(n3)CC(C)(C)OC4=O)ncc12` [Compound 47] are less than 8.00 and 7.87.
`COc1ncc(C(C)(C)N)c2cc(Nc3cnc(C#N)c(N4CCC[C@@H]4C)n3)ncc12` [Compound 49]: the pIC50 by setting is: (class designation) 9.00 to 9.51; (numeric value) 9.00.
With `COc1ncc(C2CCCN2)c2cc(Nc3ccc4c(n3)CC(C)(C)OC4=O)ncc12` (stereo not shown) [Compound 50, 2-((8-Methoxy-5-(pyrrolidin-2-yl)-2,7-naphthyridin-3-yl)amino)-7,7-dimethyl-7,8-dihydro-5H-pyrano[4,3-b]pyridin-5-one], the pIC50 reads like this: (class designation) less than 8.00; (numeric value) 7.28.
With `COc1ncc(C(C)(C)N)c2cc(Nc3ccc4c(n3)[C@H]3CCC[C@H]3OC4=O)ncc12` [Compound 51], the negative logarithm of the IC50 (pIC50) (class designation) was more than 9.52 and the pIC50 (numeric value) is 9.59.
Take `COc1ncc(C(C)(C)N)c2cc(Nc3cnc(C#N)c(C(C)C(F)(F)F)n3)ncc12` (stereo not shown) [Compound 63]: the pIC50 runs as follows: (class designation) 8.00 to 8.96; (numeric value) 8.19.
As for `C[C@H]1OC(=O)c2ccc(Nc3cc4c(C(C)(C)N)cnc(OC5CC5)c4cn3)nc2[C@@H]1C` [Compound 65], the pIC50 was 9.00 to 9.51 (class designation) and 9.25 (numeric value).
In the case of `CC[C@@](C)(N)c1cnc(OC2(C)CC2)c2cnc(Nc3ccc4c(n3)[C@@H](C)[C@H](C)OC4=O)cc12` [Compound 84], the pIC50 is 8.00 to 8.96 (class designation) and 8.88 (numeric value).
Consider `CC[C@@](C)(N)c1cnc(OC2(C)CC2)c2cnc(Nc3ccc4c(n3)[C@@H](C)C(C)(C)OC4=O)cc12` [Compound 86], for which the pIC50 was 8.00 to 8.96 (class designation) and 8.69 (numeric value).
Take `C[C@@H]1OC(=O)c2ccc(Nc3cc4c([C@](C)(N)C5CC5)cnc(OC5(C)CC5)c4cn3)nc2[C@H]1C` [Compound 89]: the pIC50 (class designation) was 8.00 to 8.96 and the pIC50 (numeric value) was 8.29.
With `C[C@@H]1c2nc(Nc3cc4c([C@@](C)(N)C5CC5)cnc(OC5(C)CC5)c4cn3)ccc2C(=O)OC1(C)C` [Compound 90], the pIC50 by setting is: (class designation) 8.00 to 8.96; (numeric value) 8.47.
On to `CC[C@@](C)(N)c1cnc(OC2(C)CC2)c2cnc(Nc3ccc4c(n3)[C@@H](C)[C@@H](C)OC4=O)cc12` [Compound 93], for which the pIC50 (class designation) was 8.00 to 8.96 and the pIC50 (numeric value) is 8.44.
In the case of `C[C@@H]1c2nc(Nc3cc4c([C@@](C)(N)C5CC5)cnc(OC5(C)CC5)c4cn3)ccc2C(=O)O[C@@H]1C` [Compound 95], the pIC50 was 8.00 to 8.96 (class designation) and 8.34 (numeric value).
Consider `COc1ncc([C@@](C)(N)C2CC2)c2cc(Nc3ccc4c(n3)C(C)(C)OC4=O)ncc12` [Compound 98], for which the pIC50 by setting is: (class designation) less than 8.00; (numeric value) 7.72.
For `CC1(C)Cc2nc(Nc3cc4c(C(C)(C)N)ccc(Cl)c4cn3)ccc2C(=O)O1` [Compound 104, 2-((5-(2-Aminopropan-2-yl)-8-chloroisoquinolin-3-yl)amino)-7,7-dimethyl-7,8-dihydro-5H-pyrano[4,3-b]pyridin-5-one], the pIC50 was more than 9.52 (class designation) and 9.89 (numeric value).
`CC(C)(N)c1cnc(OC2CC2)c2cnc(Nc3ccc4c(n3)C3(CC3)COC4=O)cc12` [Compound 107]: the pIC50 runs as follows: (class designation) 9.00 to 9.51; (numeric value) 9.21.
The corresponding values for `C[C@H]1OC(=O)c2ccc(Nc3cc4c(C(C)(C)N)cnc(OC5CC5)c4cn3)nc2C12CC2` [Compound 119] are more than 9.52 and 9.92.
`C[C@@H]1OC(=O)c2ccc(Nc3cc4c(C(C)(C)N)cnc(OC5CC5)c4cn3)nc2C12CC2` [Compound 120]: the negative-log IC50 (pIC50) runs as follows: (class designation) 9.00 to 9.51; (numeric value) 9.30.
With `CC[C@](C)(N)c1cnc(NC2CC2)c2cnc(Nc3ccc4c(n3)[C@@H](C)[C@H](C)OC4=O)cc12` [Compound 122], the negative logarithm of the IC50 (pIC50) is, setting by setting: (class designation) more than 9.52; (numeric value) 9.80.
Take `CC1(C)CCc2nc(Nc3cc4c(C(C)(C)N)cnc(OC5CC5)c4cn3)ccc2C(=O)O1` [Compound 125]: the pIC50 is, setting by setting: (class designation) 8.00 to 8.96; (numeric value) 8.74.
Take `CC[C@H]1c2nc(Nc3cc4c(C(C)(C)N)cnc(OC5CC5)c4cn3)ccc2C(=O)O[C@H]1C` [Compound 128]: the pIC50 (class designation) is 8.00 to 8.96 and the pIC50 (numeric value) is 8.96.
Take `CC[C@@](C)(N)c1cnc(OC2CC2)c2cnc(Nc3ccc4c(n3)[C@](C)(CC)OC4=O)cc12` [Compound 129]: the pIC50 is more than 9.52 (class designation) and 9.96 (numeric value).
`CC[C@H]1OC(=O)c2ccc(Nc3cc4c(C(C)(C)N)cnc(OC5CC5)c4cn3)nc2[C@@H]1C` [Compound 130]: the pIC50 reads like this: (class designation) 9.00 to 9.51; (numeric value) 9.34.
The corresponding values for `CC[C@@H]1OC(=O)c2ccc(Nc3cc4c(C(C)(C)N)cnc(OC5CC5)c4cn3)nc2[C@H]1C` [Compound 134] are 8.00 to 8.96 and 8.88.
On to `C[C@@H]1OC(=O)c2ccc(Nc3cc4c(C(C)(C)N)cnc(OC5CC5)c4cn3)nc2C1(C)C` [Compound 137], for which the pIC50 is 9.00 to 9.51 (class designation) and 9.34 (numeric value).
In the case of `CCCOc1ncc([C@](C)(N)CC)c2cc(Nc3ccc4c(n3)[C@@H](C)[C@H](C)OC4=O)ncc12` [Compound 142], the pIC50 (class designation) is more than 9.52 and the pIC50 (numeric value) was 9.70.
With `CCCOc1ncc([C@](C)(N)CC)c2cc(Nc3ccc4c(n3)CC(C)(C)OC4=O)ncc12` [Compound 143], the pIC50 runs as follows: (class designation) 9.00 to 9.51; (numeric value) 9.51.
On to `CCCOc1ncc([C@@](C)(N)CC)c2cc(Nc3ccc4c(n3)CC(C)(C)OC4=O)ncc12` [Compound 144], for which the pIC50 runs as follows: (class designation) 8.00 to 8.96; (numeric value) 8.41.
Consider `CCCOc1ncc([C@@](C)(N)CC)c2cc(Nc3ccc4c(n3)[C@@H](C)[C@H](C)OC4=O)ncc12` [Compound 145], for which the pIC50 (class designation) was 8.00 to 8.96 and the pIC50 (numeric value) was 8.75.
As to `C[C@@H]1OC(=O)c2ccc(Nc3cc4c([C@](C)(N)C5CC5)cnc(NC5CC5)c4cn3)nc2[C@H]1C` [Compound 149], the pIC50 (class designation) is more than 9.52 and the pIC50 (numeric value) is 9.70.
For `C[C@@H]1OC(=O)c2ccc(Nc3cc4c([C@@](C)(N)C5CC5)cnc(NC5CC5)c4cn3)nc2[C@H]1C` [Compound 150], the pIC50 is 8.00 to 8.96 (class designation) and 8.28 (numeric value).
In the case of `COc1ncc(C(C)(C)NC2CCC2)c2cc(Nc3ccc4c(n3)CC(C)(C)OC4=O)ncc12` [Compound 158, 2-((5-(2-(Cyclobutylamino)propan-2-yl)-8-methoxy-2,7-naphthyridin-3-yl)amino)-7,7-dimethyl-7,8-dihydro-5H-pyrano[4,3-b]pyridin-5-one], the pIC50 reads like this: (class designation) 8.00 to 8.96; (numeric value) 8.19.
Turning to `C[C@@H]1OC(=O)c2ccc(Nc3cc4c(C(C)(C)N)cnc(O[C@@H]5CCOC5)c4cn3)nc2[C@H]1C` [Compound 160], the pIC50 is, setting by setting: (class designation) 8.00 to 8.96; (numeric value) 8.90.

As a reminder, the pIC50 is −log10 of the IC50, conventionally taken in molar units.
